Measurements as given in ChEMBL document CHEMBL3399988, “Ritonavir-boosted indinavir but not lopinavir inhibits erythrocytic stage Plasmodium knowlesi malaria in rhesus macaques” (Bioorg Med Chem Lett, 2015).
Active and inactive are the calls of the source. No cut-off for these calls is given here.

Legend:
Plasmodium knowlesi [1] = test: Antimalarial activity against Plasmodium knowlesi infected Chinese rhesus macaques assessed as parasitemia level in blood smears at 40 mg/kg, intragastric treated 5 days before infection measured between day 0 to 7 by Giemsa-staining in presence of ritonavir 10 mg/kg, intragastric once daily; type: functional, organism-based
Plasmodium knowlesi [2] = test: Antimalarial activity against Plasmodium knowlesi infected Chinese rhesus macaques assessed as parasitemia level in blood smears at 40 mg/kg, intragastric treated 5 days before infection measured between day 0 to 7 by Giemsa-staining in presence of ritonavir 5 mg/kg, intragastric twice daily; type: functional, organism-based

Structure (SMILES)	inhibition (Plasmodium knowlesi [1])	inhibition (Plasmodium knowlesi [2])
Cc1cccc(C)c1OCC(=O)N[C@@H](Cc1ccccc1)[C@@H](O)C[C@H](Cc1ccccc1)NC(=O)[C@H](C(C)C)N1CCCNC1=O	inactive	
CC(C)(C)NC(=O)[C@@H]1CN(Cc2cccnc2)CCN1C[C@@H](O)C[C@@H](Cc1ccccc1)C(=O)N[C@H]1c2ccccc2C[C@H]1O		Active
